Like-named read-outs stand apart in the source and are kept apart here. Each block holds one molecule with its values, some of them ahead of it.
Assays:
gastric acid secretion = details: cited from earlier work
[1] = Adverse events in the clinical study; format: in vivo, healthy Korean volunteers; details: CYP2C19 PM group; 20 mg oral once daily for 8 days
[2] = mean ± SD

SMILES: COc1c(C)cnc(C[S+]([O-])c2nc3ccc(O)cc3[nH]2)c1C (stereo not drawn) [5-O-demethylomeprazole]
effect on gastric acid secretion (gastric acid secretion): does not have an effect on gastric acid secretion

SMILES: COc1ccc2[nH]c([S+]([O-])Cc3ncc(C)c(OC)c3C)nc2c1 (stereo not drawn) [omeprazole, reference compound]
omeprazole-related adverse event [1]: No omeprazole-related adverse event
duration of effect after a single dose (gastric acid secretion; drug still effective after a single dose): 24 to 72 h

Metabolic ratio omeprazole sulfone (AUC0→12hr, omeprazole sulfone/AUC0→12hr, omeprazole) ([2]; multiple dosing, EM (n = 8)): 2.04 ± 2.39
Metabolic ratio omeprazole sulfone (AUC0→12hr, omeprazole sulfone/AUC0→12hr, omeprazole) ([2]; multiple dosing, IM (n = 6)): 0.87 ± 0.19
Metabolic ratio omeprazole sulfone (AUC0→12hr, omeprazole sulfone/AUC0→12hr, omeprazole) ([2]; multiple dosing, PM (n = 8)): 0.90 ± 0.30
Metabolic ratio omeprazole sulfone (AUC0→12hr, omeprazole sulfone/AUC0→12hr, omeprazole) ([2]; single dosing, EM (n = 8)): 0.78 ± 0.17
Metabolic ratio omeprazole sulfone (AUC0→12hr, omeprazole sulfone/AUC0→12hr, omeprazole) ([2]; single dosing, IM (n = 6)): 2.89 ± 2.63
Metabolic ratio omeprazole sulfone (AUC0→12hr, omeprazole sulfone/AUC0→12hr, omeprazole) ([2]; single dosing, PM (n = 8)): 0.65 ± 0.08
SMILES: COc1ccc2nc(S(=O)(=O)Cc3ncc(C)c(OC)c3C)[nH]c2c1 [omeprazole sulfone]
